# Data reported in ChEMBL document CHEMBL5303573, “Mapping human microbiome drug metabolism by gut bacteria and their genes” (Nature, 2019).
# Tests used:
# [1] = The drug is tested on Bifidobacterium ruminantium strain: fecal isolate for biotransformation. The drug concentrations were measured before and after a 12-h incubation by liquid-chromatography-coupled mass spectrometry (LC–MS); settings: 2 µM
# [2] = The drug is tested on Bacteroides uniformis strain: ATCC8492 for biotransformation. The drug concentrations were measured before and after a 12-h incubation by liquid-chromatography-coupled mass spectrometry (LC–MS); settings: 2 µM
# [3] = The drug is tested on Bacteroides vulgatus strain: ATCC8482 for biotransformation. The drug concentrations were measured before and after a 12-h incubation by liquid-chromatography-coupled mass spectrometry (LC–MS); settings: phocaeicola vulgatus, 2 µM
# [4] = The drug is tested on Bacteroides xylanisolvens strain: DSM18836 for biotransformation. The drug concentrations were measured before and after a 12-h incubation by liquid-chromatography-coupled mass spectrometry (LC–MS); settings: 2 µM
# [5] = The drug is tested on Odoribacter splanchnicus strain: fecal isolate for biotransformation. The drug concentrations were measured before and after a 12-h incubation by liquid-chromatography-coupled mass spectrometry (LC–MS); settings: 2 µM
# [6] = The drug is tested on Coprococcus comes strain: ATCC27758 for biotransformation. The drug concentrations were measured before and after a 12-h incubation by liquid-chromatography-coupled mass spectrometry (LC–MS); assay type: ADME; parameters: dose 2 uM, timepoint 0 vs 12 hours; settings: 2 µM
# [7] = The drug is tested on Eubacterium rectale strain: ATCC33656 for biotransformation. The drug concentrations were measured before and after a 12-h incubation by liquid-chromatography-coupled mass spectrometry (LC–MS); settings: agathobacter rectalis, 2 µM
# [8] = The drug is tested on Ruminococcus torques strain: ATCC27756 for biotransformation. The drug concentrations were measured before and after a 12-h incubation by liquid-chromatography-coupled mass spectrometry (LC–MS); assay type: ADME; parameters: dose 2 uM, timepoint 0 vs 12 hours; settings: 2 µM
# [9] = The drug is tested on Providencia rettgeri strain: DSM1131 for biotransformation. The drug concentrations were measured before and after a 12-h incubation by liquid-chromatography-coupled mass spectrometry (LC–MS); assay type: ADME; parameters: dose 2 uM, timepoint 0 vs 12 hours; settings: 2 µM
# [10] = bifidobacterium adolescentis, 12 h, 2 µM
# Description: The drug is tested on Bifidobacterium adolescentis strain: ATCC 15703 for biotransformation. The drug concentrations were measured before and after a 12-h incubation by liquid-chromatography-coupled mass spectrometry (LC–MS)
# [11] = bacteroides eggerthii, 12 h, 2 µM
# Description: The drug is tested on Bacteroides eggerthii strain: DSM20697 for biotransformation. The drug concentrations were measured before and after a 12-h incubation by liquid-chromatography-coupled mass spectrometry (LC–MS)
# [12] = bacteroides fragilis, 12 h, 2 µM
# Description: The drug is tested on Bacteroides fragilis strain: 3397 (T10) for biotransformation. The drug concentrations were measured before and after a 12-h incubation by liquid-chromatography-coupled mass spectrometry (LC–MS)
# [13] = bacteroides stercoris, 12 h, 2 µM
# Description: The drug is tested on Bacteroides stercoris strain: ATCC43183 for biotransformation. The drug concentrations were measured before and after a 12-h incubation by liquid-chromatography-coupled mass spectrometry (LC–MS)
# [14] = limosilactobacillus reuteri cf48-3a, 12 h, 2 µM
# Description: The drug is tested on Lactobacillus reuteri CF48-3A strain: BEI HM-102 for biotransformation. The drug concentrations were measured before and after a 12-h incubation by liquid-chromatography-coupled mass spectrometry (LC–MS)
# [15] = roseburia intestinalis, 12 h, 2 µM
# Description: The drug is tested on Roseburia intestinalis strain: L1-82 for biotransformation. The drug concentrations were measured before and after a 12-h incubation by liquid-chromatography-coupled mass spectrometry (LC–MS)
# [16] = akkermansia muciniphila, 12 h, 2 µM
# Description: The drug is tested on Akkermansia muciniphila strain: ATCC BAA-835 for biotransformation. The drug concentrations were measured before and after a 12-h incubation by liquid-chromatography-coupled mass spectrometry (LC–MS)
# [17] = The drug is tested on Clostridium sporogenes strain: ATCC15579 for biotransformation. The drug concentrations were measured before and after a 12-h incubation by liquid-chromatography-coupled mass spectrometry (LC–MS); settings: 2 µM
# [18] = bacteroides fragilis, 12 h, 2 µM; remark: listed apart in the source
# Description: The drug is tested on Bacteroides fragilis strain: DS-208 for biotransformation. The drug concentrations were measured before and after a 12-h incubation by liquid-chromatography-coupled mass spectrometry (LC–MS)
# [19] = parabacteroides johnsonii, 12 h, 2 µM
# Description: The drug is tested on Parabacteroides johnsonii strain: DSM18315 for biotransformation. The drug concentrations were measured before and after a 12-h incubation by liquid-chromatography-coupled mass spectrometry (LC–MS)
SMILES,Bacterial Biotransformation [1],Bacterial Biotransformation [2],Bacterial Biotransformation [3],Bacterial Biotransformation [4],Bacterial Biotransformation [5],Bacterial Biotransformation [6],Bacterial Biotransformation [7],Bacterial Biotransformation [8],Bacterial Biotransformation [9],Bacterial Biotransformation [10],Bacterial Biotransformation [11],Bacterial Biotransformation [12],Bacterial Biotransformation [13],Bacterial Biotransformation [14],Bacterial Biotransformation [15],Bacterial Biotransformation [16],Bacterial Biotransformation [17],Bacterial Biotransformation [18],Bacterial Biotransformation [19]
CN1[C@@H]2CC[C@H]1C[C@@H](OC(=O)C(CO)c1ccccc1)C2 (some centres not stated) [ATROPINE],Compound NOT metabolized,Compound NOT metabolized,Compound NOT metabolized,Compound NOT metabolized,Compound NOT metabolized,Compound NOT metabolized,Compound NOT metabolized,Compound NOT metabolized,Compound NOT metabolized,Compound NOT metabolized,Compound NOT metabolized,Compound NOT metabolized,Compound NOT metabolized,Compound NOT metabolized,Compound NOT metabolized,Compound NOT metabolized,,,
CC(C)(C)NC(=O)[C@H]1CC[C@H]2[C@@H]3CC[C@H]4NC(=O)C=C[C@]4(C)[C@H]3CC[C@]12C [FINASTERIDE],Compound NOT metabolized,Compound metabolized,Compound metabolized,Compound metabolized,Compound metabolized,Compound NOT metabolized,Compound NOT metabolized,Compound NOT metabolized,,Compound NOT metabolized,Compound metabolized,Compound NOT metabolized,Compound NOT metabolized,Compound NOT metabolized,,Compound metabolized,Compound NOT metabolized,Compound metabolized,
Nc1nc(N)nc(-c2cc(Cl)ccc2Cl)n1.O=C(O)/C=C\C(=O)O [IRSOGLADINE MALEATE],Compound metabolized,Compound NOT metabolized,Compound NOT metabolized,Compound NOT metabolized,Compound NOT metabolized,Compound NOT metabolized,,Compound NOT metabolized,Compound NOT metabolized,Compound NOT metabolized,Compound NOT metabolized,Compound NOT metabolized,Compound NOT metabolized,,Compound NOT metabolized,Compound NOT metabolized,Compound NOT metabolized,Compound NOT metabolized,Compound metabolized
Nc1nnc(-c2cccc(Cl)c2Cl)c(N)n1 [LAMOTRIGINE],Compound NOT metabolized,Compound NOT metabolized,,Compound NOT metabolized,,Compound NOT metabolized,Compound NOT metabolized,Compound NOT metabolized,Compound NOT metabolized,Compound NOT metabolized,Compound NOT metabolized,Compound NOT metabolized,Compound NOT metabolized,Compound NOT metabolized,Compound NOT metabolized,Compound NOT metabolized,,Compound NOT metabolized,
N#Cc1ccc(C(c2ccc(C#N)cc2)n2cncn2)cc1 [LETROZOLE],Compound NOT metabolized,Compound NOT metabolized,Compound NOT metabolized,Compound NOT metabolized,Compound NOT metabolized,Compound NOT metabolized,,Compound NOT metabolized,Compound NOT metabolized,Compound NOT metabolized,Compound NOT metabolized,Compound NOT metabolized,Compound NOT metabolized,Compound NOT metabolized,Compound NOT metabolized,Compound NOT metabolized,Compound NOT metabolized,Compound NOT metabolized,Compound NOT metabolized
Cc1ccnc2c1NC(=O)c1cccnc1N2C1CC1 [NEVIRAPINE],Compound NOT metabolized,,Compound NOT metabolized,Compound NOT metabolized,,Compound NOT metabolized,,Compound NOT metabolized,Compound NOT metabolized,Compound NOT metabolized,Compound NOT metabolized,,Compound NOT metabolized,Compound NOT metabolized,Compound NOT metabolized,Compound NOT metabolized,Compound NOT metabolized,Compound metabolized,Compound NOT metabolized
CCN(CC)CC#CCOC(=O)C(O)(c1ccccc1)C1CCCCC1.Cl (configuration not stated) [OXYBUTYNIN CHLORIDE],Compound metabolized,Compound metabolized,Compound metabolized,Compound metabolized,Compound metabolized,,,,Compound NOT metabolized,Compound NOT metabolized,,,Compound NOT metabolized,Compound NOT metabolized,Compound NOT metabolized,,Compound NOT metabolized,Compound NOT metabolized,Compound NOT metabolized

# Continued, values first:
Bacterial Biotransformation [1],Bacterial Biotransformation [2],Bacterial Biotransformation [3],Bacterial Biotransformation [4],Bacterial Biotransformation [5],Bacterial Biotransformation [6],Bacterial Biotransformation [7],Bacterial Biotransformation [8],Bacterial Biotransformation [9],Bacterial Biotransformation [10],Bacterial Biotransformation [11],Bacterial Biotransformation [12],Bacterial Biotransformation [13],Bacterial Biotransformation [14],Bacterial Biotransformation [15],Bacterial Biotransformation [16],Bacterial Biotransformation [17],Bacterial Biotransformation [18],Bacterial Biotransformation [19],SMILES
Compound NOT metabolized,Compound NOT metabolized,,,Compound NOT metabolized,Compound NOT metabolized,Compound NOT metabolized,Compound NOT metabolized,,Compound NOT metabolized,Compound NOT metabolized,Compound NOT metabolized,Compound NOT metabolized,,Compound NOT metabolized,,Compound NOT metabolized,Compound NOT metabolized,Compound NOT metabolized,CN(C)CCC=C1c2ccccc2COc2ccccc21 [DOXEPIN]
Compound metabolized,Compound metabolized,Compound metabolized,Compound metabolized,Compound metabolized,Compound NOT metabolized,Compound NOT metabolized,Compound NOT metabolized,Compound NOT metabolized,,Compound metabolized,,Compound metabolized,,Compound NOT metabolized,Compound NOT metabolized,,Compound metabolized,Compound NOT metabolized,COC(=O)Nc1nc2ccc(C(=O)c3ccccc3)cc2[nH]1 [MEBENDAZOLE]
Compound NOT metabolized,Compound NOT metabolized,,Compound NOT metabolized,Compound NOT metabolized,Compound NOT metabolized,,Compound NOT metabolized,Compound NOT metabolized,Compound NOT metabolized,Compound NOT metabolized,Compound NOT metabolized,Compound NOT metabolized,,,,Compound NOT metabolized,Compound NOT metabolized,Compound NOT metabolized,CN1C(=O)CC(C)(c2ccccc2)C1=O (configuration not stated) [METHSUXIMIDE]
Compound NOT metabolized,,,Compound NOT metabolized,,Compound NOT metabolized,Compound NOT metabolized,Compound NOT metabolized,Compound NOT metabolized,Compound NOT metabolized,Compound NOT metabolized,Compound NOT metabolized,Compound NOT metabolized,Compound NOT metabolized,Compound NOT metabolized,,,Compound NOT metabolized,Compound NOT metabolized,CN1CCOC(c2ccccc2)c2ccccc2C1 (configuration not stated) [NEFOPAM]
